Assay results reported in patent US8697641B2, “4-amino-4-oxobutanoyl peptide cyclic analogues, inhibitors of viral replication” (Achillion Pharmaceuticals, Inc., priority 2008, dated 2014).

These molecules were tested on Hepatitis C replicon (assay: HCV replicon assay (NPT ELISA readout) in Huh-7 replicon-containing cells). Conditions: Hepatitis C virus, 72 h; HCV replicon in Huh-7 cells, three days incubation.
Assay type: cell-based, Hepatitis C virus
Protocol: Compounds claimed herein are tested for the ability to inhibit viral replication of the Hepatitis C replicon in cultured cells in which the HCV replicon construct has been incorporated. The HCV replicon system was described by Bartenschlager, et. al (Science, 285, pp. 110-113 (1999)). The replicon system is predictive of in vivo anti-HCV activity; compounds that are active in humans uniformly evidence activity in the replicon assay.
In this assay HCV replicon containing cells are treated with different concentrations of the test compound to ascertain the ability of the test compound to suppress replication of the HCV replicon. As a positive control, HCV replicon-containing cells are treated with different concentrations of interferon alpha, a known inhibitor of HCV replication. The replicon assay system includes Neomycin Phosphotransferase (NPT) as a component of the replicon itself in order to detect the transcription of replicon gene products in the host cell. Cells in which the HCV replicon is actively replicating have high levels of NPT; the level of NPT is proportional to HCV replication. […] The NPT level of each sample is measured using a captured ELISA.
A protocol for testing compounds for the ability to inhibit viral replication of the Hepatitis C replicon cultured cells in which the replicon construct has been incorporated, follows.
The HCV replicon contains, 5′-3′, the HCV-IRES, the neomycin phosphotransferase (neo) gene, the IRES of encephalomyocarditis virus, which directs translation of HCV sequences NS3 to NS5B, and the 3′-NTR. The sequence of the HCV replicon has been deposited in GenBank (Accession no. AJ242652).
The replicon is transfected into Huh-7 cells using standard methods such as electroporation.
The equipment and materials include, but are not limited to, Huh-7 HCV replicon-containing cells, maintenance media (DMEM (Dulbecco's modified Eagle media) supplemented with 10% FBS, L-glutamine, non-essential amino acids, penicillin (100 units/ml), streptomycin (100 micrograms/ml), and 500 micrograms/ml of Geneticin (G418), screening media (DMEM supplemented with 10% FBS, L-glutamine, non-essential amino acids, penicillin (100 units/ml) and streptomycin (100 micrograms/ml)), 96 well tissue culture plates (flat bottom), 96 well plates (U bottom for drug dilution), Interferon alpha for positive control, fixation reagent (such as methanol:acetone), primary antibody (rabbit anti-NPTII), secondary antibody: Eu-N1 l, and enhancement solution.
The cells are then seeded onto 96-well plates at a density of 6000-7500 cells/100 microliters/well (6-7.5×10^5 cells/10 ml/plate). The plates are then incubated at 37° C. in a 5% CO2 incubator.
HCV replicon-containing cells are rinsed with once PBS once; 2 mls of trypsin are then added. Cells are incubated at 37° C. in a 5% CO2 incubator for 3-5 minutes. 10 mls of complete medium is added to stop the reaction. Cells are blown gently, put into a 15 ml tube, and spun at 1200 rpm for four minutes. The trypsin/medium solution is removed and 5 mls of medium (500 ml DMEM (high glucose)) from BRL catalog #12430-054; 50 mls 10% FBS, 5% Geneticin G418 (50 mg/ml, BRL catalog #10131-035), 5 ml MEM non-essential amino acids (100×BRL #11140-050) and 5 ml pen-strep (BRL #15140-148) is added. The cells and media are mixed carefully
Cells are plated with screening medium (500 ml DMEM (BRL #21063-029), 50 ml FBS (BRL #10082-147) and 5 ml MEM non-essential amino acid (BRL #11140-050) at 6000-7500 fcells/100 μl/well of 96 well plate (6-7.5×10^5 cells/10 ml/plate). Plates are placed into 37° C. 5% CO2 incubator overnight.
The following morning, drugs (test compounds or interferon alpha) are diluted in 96 well U bottom plates with media or DMSO/media, depending on the final concentration chosen for screening. Generally for 6 concentrations of each test compounds ranging from 10 micromolar to 0.03 micromolar are applied. […]

`COc1ccc2c(O[C@@H]3C[C@H]4C(=O)N[C@]5(C(=O)NS(=O)(=O)C6CC6)C[C@H]5/C=C\CCCCC[C@H](CC(=O)N5CCC(C(F)(F)F)CC5)C(=O)N4C3)cc(-c3ccccc3)nc2c1` [Compound 62, (2R,6R,13aS, 14aR,16aS,Z)-N-(cyclopropylsulfonyl)-2-(7-methoxy-2-phenylquinolin-4-yloxy)-5,16-dioxo-6-(2-oxo-2-(4-(trifluoromethyl)piperidin-1-yl)ethyl)-1,2,3,5,6,7,8,9,10,11, 13a,14,14a,15,16,16a-hexadecahydrocyclopropa [e]pyrrolo[1,2-a][1,4] diazacyclopentadecine-14a-carboxamide] and `COc1ccc2c(O[C@@H]3C[C@H]4C(=O)N[C@]5(C(=O)NS(=O)(=O)C6CC6)C[C@H]5/C=C\CCCCC[C@H](CC(=O)N5CCCC(C(F)(F)F)C5)C(=O)N4C3)cc(-c3ccccc3)nc2c1` (stereo partly drawn) [Compound 71, (2R,6R,13aS, 14aR,16aS,Z)-N-(cyclopropylsulfonyl)-2-(7-methoxy-2-phenylquinolin-4-yloxy)-5,16-dioxo-6-(2-oxo-2-(3-(trifluoromethyl)piperidin-1-yl)ethyl)-1,2,3,5,6,7,8,9,10,11, 13a,14,14a,15,16,16a-hexadecahydrocyclopropa [e]pyrrolo[1,2-a][1,4] diazacyclopentadecine-14a-carboxamide] cannot be ordered by EC50: under 1000 nM for the first, under 1000 nM for the second.

`COc1ccc2c(O[C@@H]3C[C@H]4C(=O)N[C@]5(C(=O)NS(=O)(=O)C6CC6)C[C@H]5/C=C\CCCCC[C@H](CC(=O)N5CCC(F)(F)C5)C(=O)N4C3)cc(-c3ccccc3)nc2c1` [Compound 63, (2R,6R,13aS, 14aR,16aS,Z)-N-(cyclopropylsulfonyl)-6-(2-(3,3 - difluoropyrrolidin-1-yl)-2-oxoethyl)-2-(7-methoxy-2-phenylquinolin-4-yloxy)-5,16-dioxo-1,2,3,5,6,7,8,9,10,11, 13a,14,14a,15,16,16a-hexadecahydrocyclopropa [e]pyrrolo[1,2-a][1,4] diazacyclopentadecine-14a-carboxamide] and `COc1ccc2c(O[C@@H]3C[C@H]4C(=O)N[C@]5(C(=O)NS(=O)(=O)C6CC6)C[C@H]5/C=C\CCCCC[C@H](CC(=O)N5CCC(F)CC5)C(=O)N4C3)cc(-c3ccccc3)nc2c1` [Compound 70, (2R,6R,13aS, 14aR,16aS,Z)-N-(cyclopropylsulfonyl)-6-(2-(4-fluoropiperidin-1-yl)-2-oxoethyl)-2-(7-methoxy-2-phenylquinolin-4-yloxy)-5,16-dioxo-1,2,3,5,6,7,8,9,10,11, 13a,14,14a,15,16,16a-hexadecahydrocyclopropa [e]pyrrolo[1,2-a][1,4] diazacyclopentadecine-14a-carboxamide] cannot be ordered by EC50: under 1000 nM for the first, under 1000 nM for the second.

`COc1ccc2c(O[C@@H]3C[C@H]4C(=O)NC(C)(C(=O)O)C/C=C\CCCCC[C@H](CC(=O)N5CCCCC5)C(=O)N4C3)cc(-c3ccccc3)nc2c1` (stereo partly drawn) [Compound 64, (12R,16R,17aS,Z)-16-(7-methoxy-2-phenylquinolin-4-yloxy)-3-methyl-1,13-dioxo-12-(2-oxo-2-(piperidin-1-yl)ethyl)-2,3,4,7,8,9,10,11, 12,13,15,16,17,17a-tetradecahydro-1H-pyrrolo[1,2-a][1,4] diazacyclopentadecine-3-carboxylic acid] and `COc1ccc2c(O[C@@H]3C[C@H]4C(=O)N[C@@](C)(C(=O)NS(=O)(=O)C5CC5)C/C=C\CCCCC[C@H](CC(=O)N5CCCCC5)C(=O)N4C3)cc(-c3ccccc3)nc2c1` [Compound 65, (3R,12R,16R,17aS,Z)-N-(cyclopropylsulfonyl)-16-(7-methoxy-2-phenylquinolin-4-yloxy)-3-methyl-1,13-dioxo-12-(2-oxo-2-(piperidin-1-yl)ethyl)-2,3,4,7,8,9,10, 11,12,13,15,16,17,17a-tetradecahydro-1H-pyrrolo[1,2-a][1,4] diazacyclopentadecine-3-carboxamide] fall in the same range of EC50: 1000 to 10000 nM for the first, 1000 to 10000 nM for the second.

First: COc1ccc2c(O[C@@H]3C[C@H]4C(=O)N[C@](C)(C(=O)NS(=O)(=O)C5CC5)C/C=C\CCCCC[C@H](CC(=O)N5CCCCC5)C(=O)N4C3)cc(-c3ccccc3)nc2c1 [Compound 66, (3S,12R,16R,17aS,Z)-N-(cyclopropylsulfonyl)-16-(7-methoxy-2-phenylquinolin-4-yloxy)-3-methyl-1,13-dioxo-12-(2-oxo-2-(piperidin-1-yl)ethyl)-2,3,4,7,8,9,10, 11,12,13,15,16,17,17a-tetradecahydro-1H-pyrrolo[1,2-a][1,4] diazacyclopentadecine-3-carboxamide]
Second: COc1ccc2c(O[C@@H]3C[C@H]4C(=O)N[C@]5(C(=O)NS(=O)(=O)C6CC6)C[C@H]5/C=C\CCCCC[C@H](CC(=O)N5CC(C)CC(C)C5)C(=O)N4C3)cc(-c3ccccc3)nc2c1 (stereo partly drawn) [Compound 68, (2R,6R,13aS, 14aR,16aS,Z)-N-(cyclopropylsulfonyl)-6-(2-(3,5-dimethylpiperidin-1-yl)-2-oxoethyl)-2-(7-methoxy-2-phenylquinolin-4-yloxy)-5,16-dioxo-1,2,3,5,6,7,8,9,10,11, 13a,14,14a,15,16,16a-hexadecahydrocyclopropa [e]pyrrolo[1,2-a][1,4] diazacyclopentadecine-14a-carboxamide]
The EC50 of the first is higher: 1000 to 10000 nM for the first, under 1000 nM for the second. The second is the more potent here.

`COc1ccc2c(O[C@@H]3C[C@H]4C(=O)N[C@]5(C(=O)NS(=O)(=O)C6CC6)C[C@H]5/C=C\CCCCC[C@H](CC(=O)N5CCN(C(=O)OC(C)(C)C)CC5)C(=O)N4C3)cc(-c3ccccc3)nc2c1` [Compound 67, tert-butyl 4-(2-((2R,6R, 13aS,14aR,16aS,Z)-14a-(cyclopropylsulfonyl-carbamoyl)-2-(7-methoxy-2-phenylquinolin-4-yloxy)-5,16-dioxo-1,2,3,5,6,7,8,9,10,11, 13a,14,14a,15,16,16a-hexadecahydrocyclopropa [e]pyrrolo[1,2-a][1,4]diazacyclopentadecin-6-yl)acetyl)piperazine-1-carboxylate] and `COc1ccc2c(O[C@@H]3C[C@H]4C(=O)N[C@]5(C(=O)NS(=O)(=O)C6CC6)C[C@H]5/C=C\CCCCC[C@H](CC(=O)NC(C)(C)C)C(=O)N4C3)cc(-c3ccccc3)nc2c1` [Compound 72, (2R,6R,13aS,14aR, 16aS,Z)-6-(2-(tert-butylamino)-2-oxoethyl)-N-(cyclopropylsulfonyl)-2-(7-methoxy-2-phenylquinolin-4-yloxy)-5,16-dioxo-1,2,3,5,6,7,8,9,10,11, 13a,14,14a,15,16,16a-hexadecahydrocyclopropa [e]pyrrolo[1,2-a][1,4] diazacyclopentadecine-14a-carboxamide] cannot be ordered by EC50: under 1000 nM for the first, under 1000 nM for the second.

`COc1ccc2c(O[C@@H]3C[C@H]4C(=O)N[C@]5(C(=O)NS(=O)(=O)C6CC6)C[C@H]5/C=C\CCCCC[C@H](CC(=O)N5C(C)CCCC5C)C(=O)N4C3)cc(-c3ccccc3)nc2c1` (stereo partly drawn) [Compound 69, (2R,6R,13aS, 14aR,16aS,Z)-N-(cyclopropylsulfonyl)-6-(2-(2,6-dimethylpiperidin-1-yl)-2-oxoethyl)-2-(7-methoxy-2-phenylquinolin-4-yloxy)-5,16-dioxo-1,2,3,5,6,7,8,9,10,11, 13a,14,14a,15,16,16a-hexadecahydrocyclopropa [e]pyrrolo[1,2-a][1,4] diazacyclopentadecine-14a-carboxamide] showed an EC50 of under 1000 nM.
